Data taken from patent US8343993B2, “Hydroxyalkyl substituted imidazonaphthyridines” (3M Innovative Properties Company, priority 2005, dated 2013).
Where a name gives a salt, the structure may show the parent alone. Read-outs that look alike come from different tables or passages of the source.

Experiments:
TNF-α = test: Cytokine induction in human cells (PBMC): TNF-α secreted into culture media, ORIGEN M-Series immunoassay; assay type: cell-based; details: median where several experiments; for minimal effective concentration: 30-0.014 μM, lowest concentration inducing over 40 pg/mL, read-out: Minimum Effective Concentration TNF; for Maximal Response TNF: Table 4, background-subtracted, reference-adjusted, * = below background
Source text: (§1) An in vitro human blood cell system is used to assess cytokine induction. Activity is based on the measurement of interferon (α) and tumor necrosis factor (α) (IFN-α, and TNF-α, respectively) secreted into culture media as described by Testerman et. al. in “Cytokine Induction by the Immunomodulators Imiquimod and S-27609”, Journal of Leukocyte Biology, 58, 365-372 (September, 1995).
(§2) Whole blood from healthy human donors is collected by venipuncture into vacutainer tubes or syringes containing EDTA. Peripheral blood mononuclear cells (PBMC) are separated from whole blood by density gradient centrifugation using HISTOPAQUE-1077 (Sigma, St. Louis, Mo.) or Ficoll-Paque Plus (Amersham Biosciences Piscataway, N.J.). Blood is diluted 1:1 with Dulbecco's Phosphate Buffered Saline (DPBS) or Hank's Balanced Salts Solution (HBSS). Alternately, whole blood is placed in Accuspin (Sigma) or LeucoSep (Greiner Bio-One, Inc., Longwood Fla.) centrifuge frit tubes containing density gradient medium. The PBMC layer is collected and washed twice with DPBS or HBSS and re-suspended at 4×10^6 cells/mL in RPMI complete. The PBMC suspension is added to 96 well flat bottom sterile tissue culture plates containing an equal volume of RPMI complete media containing test compound.
(§3) The compounds are solubilized in dimethyl sulfoxide (DMSO). The DMSO concentration should not exceed a final concentration of 1% for addition to the culture wells. The compounds are generally tested at concentrations ranging from 30-0.014 μM. Controls include cell samples with media only, cell samples with DMSO only (no compound), and cell samples with reference compound.
(§4) The solution of test compound is added at 60 μM to the first well containing RPMI complete and serial 3 fold dilutions are made in the wells. The PBMC suspension is then added to the wells in an equal volume, bringing the test compound concentrations to the desired range (usually 30-0.014 μM). The final concentration of PBMC suspension is 2×10^6 cells/mL. The plates are covered with sterile plastic lids, mixed gently and then incubated for 18 to 24 hours at 37° C. in a 5% carbon dioxide atmosphere.
(§5) Following incubation the plates are centrifuged for 10 minutes at 1000 rpm (approximately 200×g) at 4° C. The cell-free culture supernatant is removed and transferred to sterile polypropylene tubes. Samples are maintained at −30 to −70° C. until analysis. The samples are analyzed for IFN-α by ELISA and for TNF-α by IGEN/BioVeris Assay.
The TNF-α concentration is determined by ORIGEN M-Series Immunoassay and read on an IGEN M-8 analyzer from BioVeris Corporation, formerly known as IGEN International, Gaithersburg, Md. The immunoassay uses a human TNF-α capture and detection antibody pair (Catalog Numbers AHC3419 and AHC3712) from Biosource International, Camarillo, Calif. Results are expressed in pg/mL.
Analysis of the data has two steps. First, the greater of the mean DMSO (DMSO control wells) or the experimental background (usually 20 pg/mL for IFN-α and 40 pg/mL for TNF-α) is subtracted from each reading. If any negative values result from background subtraction, the reading is reported as “*” and is noted as not reliably detectable. In subsequent calculations and statistics, “*” is treated as a zero. Second, all, background subtracted values are multiplied by a single adjustment ratio to decrease experiment to experiment variability. The adjustment ratio is the area of the reference compound in the new experiment divided by the expected area of the reference compound based on the past 61 experiments (unadjusted readings). […] The reference compound used is 2-[4-amino-2-ethoxymethyl-6,7,8,9-tetrahydro-α,α-dimethyl-1H-imidazo[4,5-c]quinolin-1-yl]ethanol hydrate (U.S. Pat. No. 5,352,784; Example 91) and the expected area is the sum of the median dose values from the past 61 experiments. […]

IFN-α = test: Cytokine induction in human cells (PBMC): IFN-α secreted into culture media, ELISA; assay type: cell-based; details: median where several experiments; for minimal effective concentration: 30-0.014 μM, lowest concentration inducing over 20 pg/mL, read-out: Minimum Effective Concentration IFN
Source text: as §1, §2, §3, §4, §5
IFN-α concentration is determined with a human multi-subtype colorimetric sandwich ELISA (Catalog Number 41105) from PBL Biomedical Laboratories, Piscataway, N.J. Results are expressed in pg/mL.
Analysis of the data has two steps. First, the greater of the mean DMSO (DMSO control wells) or the experimental background (usually 20 pg/mL for IFN-α and 40 pg/mL for TNF-α) is subtracted from each reading. If any negative values result from background subtraction, the reading is reported as “*” and is noted as not reliably detectable. In subsequent calculations and statistics, “*” is treated as a zero. Second, all, background subtracted values are multiplied by a single adjustment ratio to decrease experiment to experiment variability. The adjustment ratio is the area of the reference compound in the new experiment divided by the expected area of the reference compound based on the past 61 experiments (unadjusted readings). […] The reference compound used is 2-[4-amino-2-ethoxymethyl-6,7,8,9-tetrahydro-α,α-dimethyl-1H-imidazo[4,5-c]quinolin-1-yl]ethanol hydrate (U.S. Pat. No. 5,352,784; Example 91) and the expected area is the sum of the median dose values from the past 61 experiments.
The minimum effective concentration is calculated based on the background-subtracted, reference-adjusted results for a given experiment and compound. […]

COCCc1nc2c(N)nc3cccnc3c2n1CC(C)(C)O (as salt: hydrobromid) [Analog 2, 1-[4-amino-2-(2-methoxyethyl)-1H-imidazo[4,5-c][1,5]naphthyridin-1-yl]-2-methylpropan-2-ol]
melting point: 234 to 235 °C

CCOCc1nc2c(N)nc3cccnc3c2n1CC(C)(C)O [Analog 1, 1-(4-amino-2-ethoxymethyl-1H-imidazo[4,5-c][1,5]naphthyridin-1-yl)-2-methylpropan-2-ol]
minimal effective concentration (TNF-α; Table 3, 18 to 24 hours): 1.11 µM
minimal effective concentration (TNF-α; Table 4, 18 to 24 hours): 1.11 µM
minimal effective concentration (IFN-α; Table 3, 18 to 24 hours): 0.12 µM
minimal effective concentration (IFN-α; Table 4, 18 to 24 hours): 0.12 µM
melting point: 157 to 159 °C

COCCc1nc2c(N)nc3cccnc3c2n1CC(C)(C)O [Analog 2, 1-[4-amino-2-(2-methoxyethyl)-1H-imidazo[4,5-c][1,5]naphthyridin-1-yl]-2-methylpropan-2-ol, reference compound]
minimal effective concentration (TNF-α; Table 3, 18 to 24 hours): 0.37 µM
minimal effective concentration (TNF-α; Table 4, 18 to 24 hours): 0.37 µM
minimal effective concentration (IFN-α; Table 3, 18 to 24 hours): 0.04 µM
minimal effective concentration (IFN-α; Table 4, 18 to 24 hours): 0.04 µM

Cc1nc2c(N)nc3cccnc3c2n1CC(C)(C)O [Analog 3, 1-(4-amino-2-methyl-1H-imidazo[4,5-c][1,5]naphthyridin-1-yl)-2-methylpropan-2-ol, reference compound]
minimal effective concentration (TNF-α; Table 4, 18 to 24 hours): 3.33 µM
minimal effective concentration (IFN-α; Table 4, 18 to 24 hours): 0.37 µM

CCc1nc2c(N)nc3cccnc3c2n1CC(C)(C)O [Analog 4, 1-(4-amino-2-ethyl-1H-imidazo[4,5-c][1,5]naphthyridin-1-yl)-2-methylpropan-2-ol, reference compound]
minimal effective concentration (TNF-α; Table 4, 18 to 24 hours): 3.33 µM
minimal effective concentration (IFN-α; Table 4, 18 to 24 hours): 0.37 µM

CCCc1nc2c(N)nc3cccnc3c2n1CC(C)(C)O [Analog 5, 1-(4-amino-2-propyl-1H-imidazo[4,5-c][1,5]naphthyridin-1-yl)-2-methylpropan-2-ol, reference compound]
minimal effective concentration (TNF-α; Table 4, 18 to 24 hours): 1.11 µM
minimal effective concentration (IFN-α; Table 4, 18 to 24 hours): 0.12 µM

CCOCc1nc2c(N)nc3cccnc3c2n1CC(C)(C)NC(=O)C1CCCCC1 [Analog 6, N-[2-(4-amino-2-ethoxymethyl-1H-imidazo[4,5-c][1,5]naphthyridin-1-yl)-1,1-dimethylethyl]cyclohexanecarboxamide]
minimal effective concentration (TNF-α; Table 4, 18 to 24 hours): 0.014 µM
minimal effective concentration (IFN-α; Table 4, 18 to 24 hours): 0.014 µM
melting point: 210 to 211 °C

CCOCc1nc2c(N)nc3cccnc3c2n1CC(C)(C)NS(C)(=O)=O [Analog 7, N-[2-(4-amino-2-ethoxoxymethyl-1H-imidazo[4,5-c][1,5]naphthyridin-1-yl)-1,1-dimethylethyl]methanesulfonamide, reference compound]
minimal effective concentration (TNF-α; Table 4, 18 to 24 hours): 0.37 µM
Maximal Response TNF (TNF-α): 9234 pg/mL
minimal effective concentration (IFN-α; Table 4, 18 to 24 hours): 0.04 µM
Maximal Response IFN (IFN-α; Table 4, background-subtracted, reference-adjusted): 2465 pg/mL

Cc1nc2c(N)nc3cccnc3c2n1CC(C)(C)F [Analog 8, 1-(2-fluoro-2-methylpropyl)-2-methyl-1H-imidazo[4,5-c][1,5]naphthyridin-4-amine, reference compound]
minimal effective concentration (TNF-α; Table 4, 18 to 24 hours): 10 µM
minimal effective concentration (IFN-α; Table 4, 18 to 24 hours): 0.37 µM

CCOCc1nc2c(N)nc3cccnc3c2n1CC(C)C [Analog 9, 2-ethoxymethyl-1-(2-methylpropyl)-1H-imidazo[4,5-c][1,5]naphthyridin-4-amine, reference compound]
minimal effective concentration (TNF-α; Table 4, 18 to 24 hours): 1.11 µM
minimal effective concentration (IFN-α; Table 4, 18 to 24 hours): 0.12 µM

Cc1nc2c(N)nc3cccnc3c2n1CC(C)C [Analog 10, 2-methyl-1-(2-methylpropyl)-1H-imidazo[4,5-c][1,5]naphthyridin-4-amine, reference compound]
minimal effective concentration (TNF-α; Table 4, 18 to 24 hours): 1.11 µM
minimal effective concentration (IFN-α; Table 4, 18 to 24 hours): 0.37 µM

CC(C)(Cn1c(CO)nc2c(N)nc3cccnc3c21)NC(=O)C1CCCCC1 [Example 1, N-[2-(4-Amino-2-hydroxymethyl-1H-imidazo[4,5-c][1,5]naphthyridin-1-yl)-1,1-dimethylethyl]cyclohexanecarboxamide]
minimal effective concentration (TNF-α; Table 4, 18 to 24 hours): 10 µM
minimal effective concentration (IFN-α; Table 4, 18 to 24 hours): 1.11 µM
melting point: 230 to 232 °C

CC(C)(Cn1c(CO)nc2c(N)nc3cccnc3c21)NS(C)(=O)=O [Example 2, N-[2-(4-Amino-2-hydroxymethyl-1H-imidazo[4,5-c][1,5]naphthyridin-1-yl)-1,1-dimethylethyl]methanesulfonamide]
minimal effective concentration (TNF-α; Table 4, 18 to 24 hours): 30 µM
minimal effective concentration (IFN-α; Table 4, 18 to 24 hours): 10 µM
melting point: 268 to 271 °C

CS(=O)(=O)NCCCCn1c(CCO)nc2c(N)nc3cccnc3c21 [Example 3, N-{4-{4-Amino-2-(2-hydroxyethyl)-1H-imidazo[4,5-c][1,5]naphthyridin-1-yl]butyl}methanesulfonamide]
minimal effective concentration (TNF-α; Table 4, 18 to 24 hours): 30 µM
minimal effective concentration (IFN-α; Table 4, 18 to 24 hours): 1.11 µM
melting point: 194 to 195 °C

CS(=O)(=O)NCCn1c(CO)nc2c(N)nc3cccnc3c21 [Example 4, N-[2-(4-Amino-2-hydroxymethyl-1H-imidazo[4,5-c][1,5]naphthyridin-1-yl)ethyl]methanesulfonamide]
minimal effective concentration (TNF-α; Table 4, 18 to 24 hours): > 30 µM
Maximal Response TNF (TNF-α): * (Below the experimental background of 40 pg/mL)
minimal effective concentration (IFN-α; Table 4, 18 to 24 hours): 10 µM
melting point: 239 to 242 °C

CS(=O)(=O)NCCn1c(CCO)nc2c(N)nc3cccnc3c21 [Example 5, N-{2-[4-Amino-2-(2-hydroxyethyl)-1H-imidazo[4,5-c][1,5]naphthyridin-1-yl]ethyl}methanesulfonamide]
minimal effective concentration (TNF-α; Table 4, 18 to 24 hours): > 30 µM
Maximal Response TNF (TNF-α): * (Below the experimental background of 40 pg/mL)
minimal effective concentration (IFN-α; Table 4, 18 to 24 hours): 30 µM
melting point: 136 to 138 °C

CC(C)(O)Cn1c(CO)nc2c(N)nc3cccnc3c21 [Example 6, 1-(4-Amino-2-hydroxymethyl-1H-imidazo[4,5-c][1,5]naphthyridin-1-yl)-2-methylpropan-2-ol]
minimal effective concentration (TNF-α; Table 3, 18 to 24 hours): 10 µM
minimal effective concentration (TNF-α; Table 4, 18 to 24 hours): 10 µM
minimal effective concentration (IFN-α; Table 3, 18 to 24 hours): 1.11 µM
minimal effective concentration (IFN-α; Table 4, 18 to 24 hours): 1.11 µM
melting point: 235 to 237 °C
